Measured values published in US6420367B1, “Pyrimidine derivatives exhibiting antitumor activity” (Shionogo & Co., Ltd., priority 1998, dated 2002).
≈ marks a conversion by molar mass, not a printed value.

Experiments:
[1] = test system: human squamous lung cancer RERF-RC-AI; assay: In vitro cell growth inhibition test, MTT assay; type: cell-based; details: MTT assay 4 days after compound addition
Excerpt: (§1) Test Example 2 In Vitro Cell Growth Inhibition Test Cells and MTT Assay
(§2) Human squamous lung cancer […], human squamous lung cancer Ma44, human lung adenocarcinoma A549, human colon cancer HT29 and human pancreas cancer PANC-1 were used.

human colon cancer HT29 = assay: In vitro cell growth inhibition test, MTT assay; type: cell-based; details: MTT assay 4 days after compound addition
Excerpt: as §1, §2

[2] = test system: human lung adenocarcinoma A549; assay: In vitro cell growth inhibition test, MTT assay; type: cell-based; details: MTT assay 4 days after compound addition
Excerpt: as §1, §2

[3] = test system: human squamous lung cancer Ma44; assay: In vitro cell growth inhibition test, MTT assay; type: cell-based; details: MTT assay 4 days after compound addition
Excerpt: as §1, §2

[4] = test system: DT-R cells (pRRE3-luc-transfected v-ki-ras-transformed NIH3T3 cells); signal derived from Ras oncogene products; assay: Inhibitory effect against cellular signaling derived from Ras oncogene products: luciferase reporter, dissociation of DT-R from DT-C activity (MAC); type: cell-based, mouse; details: minimal tested concentration at which luciferase activities of DT-C cells and DT-R cells dissociated
Excerpt: Test Example 1 Inhibitory Effect Against Cellular Signaling Derived From Ras Oncogene Products
1) Establishment of Cell Lines Used in Assay
Based on the reporter plasmid (pGV-P (Toyo Ink, Japan)), in which luciferase gene was ligated to SV40-derived minimal promoter, we constructed a plasmid designated pRRE3-luc by inserting 3 copies of chemically synthesized oligonucleotides (Sequence: CAGGATATGACTCT, derived from mouse NVL-3 (M. A. Reddy et al.(1992)Mol. Endocrinol., 6, 1051)) into upstream of the promoter. v-ki-ras-transformed NIH3T3 cells (DT cells, provided by Dr. Makoto Noda (Kyoto Univ., School of medicine)) were transfected with this plasmid by liposome-mediated transfection and transfected cell lines stably incorporated and maintained each plasmid were obtained. We named pGV-P and pRRE3-transfected cell line as DT-C and DT-R, respectively and used in the assay described below.
2) Preparation of Samples
i) All the cell lines were cultured in Dulbecco's Modified Essential Medium (DMEM: 10% Fetal Calf Serum(FCS: Hyclone, USA)) including […] kanamycin (Meiji Seika, Japan) in humidified incubator under condition of 5% CO2 at 37° C.
ii) DT-C and DT-R cells were seeded at 2500 cells/well into flat-bottom 96 well multiplate (Sumitomo bakelite) and incubated for 24 hours.
iii) Test compounds were prepared as 1 mg/ml DMSO solution.
iv) The solution of test compounds were added to the culture. Tested compounds are used at the concentration from […] to 0.51 ng/ml with by 3-fold dilution.
v) After 24 hours, the culture supernatant was completely aspirated and […] of cell-lysing solution (PGC-50 (Toyo Ink, Japan)) was added before cells were dried up. In order to the cells were lysed completely, multiwell plates were left at room temperature for 10 to 30 min. The plates were wrapped up and stored at −20° C. till the day of measurement.
3) Measurement of Samples
i) Melt the samples by putting 96 well multiplate at 37° C. and add 90 μl/well 25 mM Tris (pH 7.5).
ii) Transfer 50 μl of the sample (110 μl) to the 96 well microplate for measurement (Microlite 1 (Dynatech)).
iii) Measure the samples by the luminometer, LUMINOUS CT9000D (Dia-Yatron, Japan). We used Pickagene luminescence kit PGL2000 or LT2.0 (Toyo Ink, Japan) as substrates for luminescence measurement (50 μl/well).
4) Judgment of the Results
i) The luciferase activity of DT-C cells and DT-R cells were plotted in the graph where the relative activity and the compound concentration were expressed as Y-axis and X-axis, respectively. We judged by the degree of dissociation between the activities of DT-C cells and DT-R cells as an index.
ii) Concretely, efficacy of the compound was expressed by two values described below.
a) Among the points of concentration tested, the minimal concentration (Minimal Active Concentration: MAC), at which the activities of DT-C cells and DT-R cells dissociated, was shown as an index of efficacy of the compound.

[5] = test system: human pancreas cancer PANC-1; assay: In vitro cell growth inhibition test, MTT assay; type: cell-based; details: MTT assay 4 days after compound addition
Excerpt: as §1, §2

Compound	IC50, RERF-LC-AI [1] [µg/mL]	IC50, HT29 (human colon cancer HT29) [µg/mL]	IC50, A549 [2] [µg/mL]	IC50, Ma44 [3] [µg/mL]	MAC (Minimal Active Concentration) [4] [µg/mL]	IC50, PANC-1 [5] [µg/mL]
CNC(N)=Nc1nc(C)ncc1CSc1nnc(-c2ccccc2N)o1.Cl.Cl [Compound A-5]	0.2	0.15	0.16	–	–	–
CCNC(N)=Nc1nc(C)ncc1CSc1nnc(-c2ccccc2N)o1 [Compound A-8]	0.01 (≈ 0.026 µM)	0.008 (≈ 0.0208 µM)	0.012 (≈ 0.0312 µM)	–	–	–
CCCCNC(N)=Nc1nc(C)ncc1CSc1nnc(-c2ccccc2N)o1 [Compound A-9]	0.025 (≈ 0.0606 µM)	0.1 (≈ 0.242 µM)	0.09 (≈ 0.218 µM)	–	–	–
Cc1ncc(CSc2nnc(-c3ccccc3N)o2)c(N=C(N)NCc2ccccc2)n1 [Compound A-12]	0.87 (≈ 1.95 µM)	0.51 (≈ 1.14 µM)	–	–	–	–
CCNC(N)=Nc1nc(C)ncc1CSc1nnc(-c2ccccc2NC(C)=O)o1 [Compound A-18]	0.0022 (≈ 0.00516 µM)	–	–	–	–	–
CNC(N)=Nc1nc(C)ncc1CSc1nnc(-c2ccccc2NC(C)=O)o1 [Compound A-19]	0.02 (≈ 0.0485 µM)	–	–	–	–	–
CCC(=O)Nc1ccccc1-c1nnc(SCc2cnc(C)nc2N=C(N)NC)o1 [Compound A-20]	0.02 (≈ 0.0469 µM)	–	–	–	–	–
CCNC(=Nc1nc(C)ncc1CSc1nnc(-c2ccccc2)o1)NC [Compound A-21]	0.02 (≈ 0.0522 µM)	–	–	–	–	–
CCNC(N)=Nc1nc(C)ncc1CSc1nnc(-c2ccccc2NC(=O)CC)o1 [Compound A-22]	0.02 (≈ 0.0454 µM)	–	–	–	–	–
CCNC(=Nc1nc(C)ncc1CSc1nnc(-c2ccccc2NC(=O)CC)o1)NC [Compound A-23]	0.0078 (≈ 0.0172 µM)	–	0.041 (≈ 0.0902 µM)	0.025 (≈ 0.055 µM)	0.123	–
CCNC(=Nc1nc(C)ncc1CSc1nnc(-c2ccccc2NC(C)=O)o1)NCC [Compound A-25]	0.0078 (≈ 0.0172 µM)	–	0.032 (≈ 0.0704 µM)	0.031 (≈ 0.0682 µM)	0.370	–
CCNC(=Nc1nc(C)ncc1CSc1nnc(-c2ccccc2O)o1)NC [Compound A-27]	0.079 (≈ 0.198 µM)	–	0.69 (≈ 1.73 µM)	1 (≈ 2.5 µM)	–	–
CCNC(=Nc1nc(C)ncc1CSc1nnc(-c2ccccc2NC)o1)NC [Compound A-38]	0.014 (≈ 0.0339 µM)	0.023 (≈ 0.0558 µM)	–	0.034 (≈ 0.0824 µM)	0.0412	0.028 (≈ 0.0679 µM)
CCNC(=Nc1nc(C)ncc1CSc1nnc(-c2ccccc2NCC)o1)NC [Compound A-40]	–	0.049 (≈ 0.115 µM)	–	0.071 (≈ 0.166 µM)	0.370	–
CCNC(=Nc1nc(C)ncc1CSc1nnc(-c2cccc(N)c2)o1)NCC [Compound A-41]	–	0.072 (≈ 0.175 µM)	–	0.065 (≈ 0.158 µM)	–	–
CCNC(=Nc1nc(C(F)(F)F)ncc1CSc1nnc(-c2ccccc2N)o1)NCC [Compound A-46]	0.14 (≈ 0.3 µM)	0.32 (≈ 0.686 µM)	–	1.8 (≈ 3.86 µM)	–	–

Compound	IC50, RERF-LC-AI [1] [µg/mL]	IC50, HT29 (human colon cancer HT29) [µg/mL]	IC50, A549 [2] [µg/mL]	IC50, Ma44 [3] [µg/mL]	MAC (Minimal Active Concentration) [4] [µg/mL]	IC50, PANC-1 [5] [µg/mL]
CCNC(=Nc1nc(C)ncc1CSc1nnc(-c2cc(F)ccc2N)o1)NCC [Compound A-50]	0.047 (≈ 0.109 µM)	0.09 (≈ 0.209 µM)	–	0.26 (≈ 0.604 µM)	–	–
CCNC(=Nc1nc(C)ncc1CSc1nnc(-c2ccc(Cl)cc2)o1)NCC [Compound A-62]	0.0078 (≈ 0.0181 µM)	–	–	0.024 (≈ 0.0556 µM)	0.0412	0.017 (≈ 0.0394 µM)
C=C(Br)CNC(=Nc1ncncc1CSc1nnc(-c2ccc(N)cc2)o1)NCC [Compound A-111]	0.017 (≈ 0.0347 µM)	0.035 (≈ 0.0715 µM)	0.097 (≈ 0.198 µM)	0.4 (≈ 0.817 µM)	0.123	–
CCNC(=Nc1ncncc1CSc1nnc(-c2ccc(N)cc2)o1)NCCO [Compound A-113]	0.027 (≈ 0.0651 µM)	0.076 (≈ 0.183 µM)	0.62 (≈ 1.5 µM)	1.2 (≈ 2.9 µM)	–	–
CCNC(=Nc1ncncc1CSc1nnc(-c2ccc(CC)cc2)o1)NCC [Compound A-114]	0.029 (≈ 0.0705 µM)	0.045 (≈ 0.109 µM)	0.32 (≈ 0.778 µM)	0.83 (≈ 2.02 µM)	1.11	–
CCNC(=Nc1ncncc1CSc1nnc(-c2ccc(C(C)C)cc2)o1)NCC [Compound A-115]	0.43 (≈ 1.01 µM)	0.065 (≈ 0.153 µM)	4.6 (≈ 10.8 µM)	5.8 (≈ 13.6 µM)	–	–
CCCc1ccc(-c2nnc(SCc3cncnc3N=C(NCC)NCC)o2)cc1 [Compound A-116]	0.62 (≈ 1.46 µM)	0.072 (≈ 0.169 µM)	3.8 (≈ 8.93 µM)	4.2 (≈ 9.87 µM)	–	–
CCNC(=Nc1ncncc1CSc1nnc(-c2ccc(C(C)=O)cc2)o1)NCC [Compound A-117]	0.16 (≈ 0.376 µM)	0.017 (≈ 0.04 µM)	1.1 (≈ 2.59 µM)	8.6 (≈ 20.2 µM)	–	–
CCNC(=Nc1ncncc1CSc1nnc(-c2ccc([N+](=O)[O-])cc2Cl)o1)NCC [Compound A-126]	0.012 (≈ 0.0259 µM)	0.014 (≈ 0.0302 µM)	0.028 (≈ 0.0605 µM)	0.17 (≈ 0.367 µM)	0.0137	–
CCCNC(=Nc1nc(C)ncc1CSc1nnc(-c2ccc(N)cc2OC)o1)NCCC [Compound A-156]	0.016 (≈ 0.034 µM)	0.023 (≈ 0.0489 µM)	–	0.072 (≈ 0.153 µM)	–	0.025 (≈ 0.0531 µM)
CNC(=Nc1nc(C)ncc1CSc1nnc(-c2ccc([N+](=O)[O-])cc2)o1)NC.Cl [Compound A-159]	–	–	–	–	0.0412	–
CCNC(=Nc1ncncc1CSc1nnc(-c2ccc([N+](=O)[O-])cc2)o1)N(C)C [Compound A-190]	–	–	–	–	0.0412	–
CCNC(=Nc1nc(C)ncc1COc1nnc(-c2ccccc2N)o1)NC [Compound B-2]	–	–	–	–	0.370	–
CCNC(=Nc1ncncc1CSc1nnc(-c2cnc(C)cn2)o1)NCC [Compound D-32]	0.013 (≈ 0.0325 µM)	0.013 (≈ 0.0325 µM)	3.5 (≈ 8.76 µM)	3.1 (≈ 7.76 µM)	–	–
CCNC(=Nc1ncncc1CSc1nnc(-c2ccc(-n3cccc3)nc2)o1)NCC [Compound D-35]	2.5 (≈ 5.56 µM)	0.025 (≈ 0.0556 µM)	4.6 (≈ 10.2 µM)	1.5 (≈ 3.34 µM)	–	–
